Results: patent US20220370468A1, “Methods of treating sleep disorders associated with pain” (Astellas Pharma Global Development, Inc., priority 2019, published 2022)

Tested on: patients with fibromyalgia
Test: Phase 2a randomized double-blind placebo-controlled study: mean daily average pain score (NRS)
Assay type: in vivo, human
Protocol: A phase 2a, randomized, double-blind, placebo-controlled, parallel group study was conducted at 24 sites in the United States to assess the analgesic efficacy and safety of the compound of Formula (I) in patients with fibromyalgia. The study consisted of the following: a screening period of up to 42 days, which included a washout period and a 7-day baseline diary run-in; a 57-day double-blind randomized treatment period with site visits at Days 1, 15, 29, and 57; and a 4-week follow-up period consisting of a clinic visit after 2 weeks and a phone call after 4 weeks. The study was carried out in accordance with the Declaration of Helsinki and approved by the relevant Institutional Review Boards. All participants provided written informed consent prior to the initiation of any study procedures.
Male and female patients aged 18 to 80 years were included in the trial if they met the American College of Rheumatology (ACR) 1990 and 2010 fibromyalgia diagnostic criteria at screening (Wolfe et al., 1990; Wolfe et al., 2010b). The core diagnostic criteria for fibromyalgia are defined by the 1990 criteria (Wolfe et al., 1990), and while ACR has published newer criteria, the 1990 version is still commonly utilized in clinical trials. […]
The primary efficacy endpoint for pain was change from baseline to Week 8 in mean daily average pain score assessed by the Numeric Rating Scale (NRS; 0 to 10 scale). […]
Secondary efficacy endpoints included the number of patients achieving a ≥30% or ≥50% reduction in mean daily average pain score assessed by NRS (0 to 10 scale) from baseline to Week 8 and end of treatment (EOT; Day 57); change from baseline to Weeks 2, 4, 8, and EOT in the FIQR function, symptoms, and overall impact subscales; and overall improvement assessed by patient global impression of change (PGIC) (Rampakakis et al., 2015) at Weeks 2, 4, 8, and EOT.

For `Cc1sc2cc(Cl)ccc2c1-c1ccc(N2CCO[C@H](CNC3CCC3)C2)c(C(=O)O)c1` [Compound of Formula (I)], which “responder analysis of mean daily average pain score (≥30% or ≥50% reduction) versus placebo” value (15 mg once daily) is on record?
Its value is “no statistically significant differences”.

What about the “change from baseline in mean daily average pain score versus placebo” value (Weeks 2, 6 and 7, FIG. 1) of the same molecule?
Its value is “statistically significant treatment differences in favor of Compound of Formula (I)”.

And the “change from baseline in mean daily average pain score (NRS 0-10), primary endpoint” value (baseline to Week 8, 15 mg oral once daily, placebo −1.26)?
Its value is −1.60.
